Data as given in US20090148883A1, “BIOMARKER FOR ASSESSING RESPONSE TO FMS TREATMENT” (priority 2007, published 2009).
Values joined by “and” are separate entries in the source; they are usually repeats but may differ in a detail not shown here. Equal values may be shown once.

Tests used:
[1] = tested on: bone marrow derived macrophages (BMDM); assay: Clearance of CSF-1 by bone marrow derived macrophages in vitro (CSF-1 ELISA of conditioned media); assay type: cell-based, mouse; details: for Reduction of rate of CSF-1 consumption: slopes through 4.9 hours
Description: COMPOUND 1 was provided as a 10 mM stock in dimethyl sulfoxide (DMSO).Recombinant mouse CSF-1 (416 mL 050) and mouse CSF-1 ELISA (MNC00) were both purchased from R&D Systems Inc., (Minneapolis, Minn.). Mouse bone marrow-derived macrophage (BMDM) were prepared and were plated into 12 well plates in the presence of culture media (αMEM containing 10% FCS and glutamine PenStrep) and 25 ng/mL CSF-1 for three days until approximately 60% confluency was achieved. The cultures were then washed twice with media without CSF-1, and cultured for 2 hrs in the absence of CSF-1 to allow the macrophages to consume CSF-1 that may have been residual to the wells. The cultures were next adjusted to contain CSF-1 and COMPOUND 1 as indicated in Table 1 (Experimental Design) and incubation was continued at 37° C. and 5% CO2. […] At timed-intervals (0, 1.1, 2.3, 4.9, 10.3, 19.9, 29, and 44 hours) 50 μl of conditioned media were removed from each well and saved under refrigeration. After harvest of the last time point, all samples were subjected to CSF-1 ELISA. CSF-1 concentrations (pg/mL) vs time were plotted for each well using linear linear and log linear formats. Consumption was log linear over the first 4.9-hours. Excel was used to calculate a best fit linear equation describing CSF-1 consumption for each well through 4.9 hours and slopes were used to determine the relative rates of consumption.

CSF-1 [2] = assay: Plasma CSF-1 biomarker in rats, Example 2 (po bid 5 days); assay type: in vivo, rat; details: 40 mg/kg po bid, control ~75 pg/ml
Description: (§1) Groups of female Sprague Dawley rats (n=5) were orally administered 5 or 15 mg/kg of COMPOUND 2 or 40 mg/kg COMPOUND 1 twice per day for 5 consecutive days to characterize compound tolerability. Additional groups of rats, treated with vehicle or 40 mg/kg COMPOUND 1, were terminated one hour after the a.m. dose on Days 1 and 3 for interim analysis of various parameters. Post-mortem analysis of all treated animals included standard necropsy with liver histology evaluation as well as standard hematology and serology. None of the animals were found dead or were euthanized (moribund) prior to scheduled termination. None of the treatments affected body weight or the organ:body weight ratio of selected organs (i.e., liver, thymus, spleen & uterus). […] Both compounds, at the highest dose tested, decreased the number of macrophages in the uterus (up to ˜60% for COMPOUND 2) on Day 5 however, this parameter was highly variable.
On Day 0, the rats were ear tagged, randomized into the treatment groups (Groups 1 & 4: n=15, Groups 2 & 3: n=5), weighed and treated (po, bid) with either vehicle (20% HPbCD) or the test articles as delineated in Table 2 (Allocation of Treatment Groups).
(§2) On Days 1 & 3, one hour after a.m. dose, five rats from Groups 1 and 4 were euthanized using CO2 asphyxiation and exsanguinated via cardiac puncture. Blood samples (˜500 μL) were transferred to separate ethylenediaminetetraacetic acid (EDTA) microtainers and a complete blood count (CBC) was conducted using the Advia 120 Hematology System (Bayer Diagnostics, Tarrytown, N.Y.). Additional blood samples were transferred to separate microtainers (with or without anticoagulant) and processed for biomarker (i.e., MCSF-1) and serologic (i.e., AST/ALT) analysis. The liver and thymus were weighed and discarded. The spleens were weighed and zap-frozen and the uteri (without ovaries attached) were weighed and fixed in 10% buffered formalin. The macrophage content of the uterus was determined immunohistochemically using a macrophage-specific (ED-1) antibody.
On Day 5, rats were euthanized using carbon dioxide and exsanguinated via cardiac puncture. Blood samples (˜500 μL) were collected and processed as described above for CBC, biomarker analysis and serology. The liver, spleen, thymus and uterus (without ovaries attached) were isolated, weighed and fixed in buffered formalin. The right knee with femur attached was isolated, trimmed and fixed in formalin. The left femur was isolated for determination of bone marrow cell counts. Liver histopathology was also conducted.
Differences between treated and control groups were analyzed statistically by ANOVA with a Dunnett's Multiple Comparison post-test. (p value; *:<0.05, **:<0.01).

CSF-1 [3] = assay: Plasma CSF-1 after single ascending oral doses in healthy male subjects (Human CSF-1 ELISA); assay type: in vivo; details: individual subjects (placebo subjects not identified); for Plasma CSF-1 Fold Change from Baseline: 1200 mg single oral dose cohort
Description: The safety and tolerability of single ascending, oral doses of COMPOUND 1 in healthy male subjects was assessed. Blood samples were collected on Day 1 predose and at 2, 4, 8, 12, 24 and 48 hours postdose and assessed for biomarker. Analysis of the biomarker was performed for all subjects receiving at least one dose of COMPOUND 1 or placebo as set forth in Table 5.
4 mL venous blood samples were collected on Day 1, within 60 minutes (predose), 2, 4, 8, 12, 24, and 48 hours postdose and 3 mL on Day 1 predose, 2 and 8 hours postdose for assessment of the effect of COMPOUND 1 on plasma CSF-1.
Plasma CSF-1 levels were measured using R&D Systems Human CSF-1 ELISA. Samples were diluted 1:5 for assay. Assay range for standards is 31-2000 pg/mL. Maximum measurable plasma concentration is ˜10000 pg/ml. Current maximum measured concentration ˜4000 pg/ml.

BMDM = assay: CSF-1-induced BMDM proliferation; assay type: cell-based; details: Mus musculus, data not shown, read-out: IC50 for inhibition of CSF-1-induced BMDM proliferation
[4] = Tolerability in rats, Example 2; assay type: in vivo; details: 5 or 15 mg/kg COMPOUND 2 or 40 mg/kg COMPOUND 1, po bid, 5 consecutive days
Description: as §1, with “variable. […]” for “variable.”
On Days 1 & 3, one hour after a.m. dose, five rats from Groups 1 and 4 were euthanized using CO2 asphyxiation and exsanguinated via cardiac puncture. […] The macrophage content of the uterus was determined immunohistochemically using a macrophage-specific (ED-1) antibody. […]

[5] = tested on: ED-1 positive macrophages in the uterus; assay: Macrophage content of the uterus (ED-1 immunohistochemistry) in rats, Example 2; assay type: in vivo, rat; details: highest dose tested (COMPOUND 2 15 mg/kg, COMPOUND 1 40 mg/kg po bid), Day 5; highly variable
Description: as §1, §2
On Day 5, rats were euthanized using carbon dioxide and exsanguinated via cardiac puncture. […]
Differences between treated and control groups were analyzed statistically by ANOVA with a Dunnett's Multiple Comparison post-test. […]

With CN(C)CC(=O)N1CCC(c2ccc(NC(=O)c3nc(C#N)c[nH]3)c(C3=CCCCC3)c2)CC1.Cl [COMPOUND 1] the “Reduction of rate of CSF-1 consumption” value ([1]; 0.001 μM, 1 ng/mL CSF-1) was 16%, the “Reduction of rate of CSF-1 consumption” value ([1]; 0.01 μM, 1 ng/mL CSF-1) was 56% and the “Reduction of rate of CSF-1 consumption” value ([1]; 0.1 μM, 1 ng/mL CSF-1) was 64%. The “Portion of CSF-1 clearance not inhibited” value ([1]; 1 uM) was ~36%, the “Reduction of rate of CSF-1 consumption” value ([1]; 1 μM, 1 ng/mL CSF-1) was 64% and the IC50 ([1]; Mus musculus, BMDM, 1 ng/mL CSF-1, read-out: Half-maximal inhibition of CSF-1 consumption) was 1 to 10 nM. The “Portion of CSF-1 clearance that can be inhibited” value ([1]; based on consumption rates, plateau) was ~64%, the “Mean plasma CSF-1 level” value (CSF-1 [2]; Day 1) was 112 pg/mL and the “Mean plasma CSF-1 level” value (CSF-1 [2]; Day 3) was 314 pg/mL. For the same molecule, the “Mean plasma CSF-1 level” value (CSF-1 [2]; Day 5) was 526 pg/mL, the “Plasma CSF-1 Fold Change from Time 0” value (CSF-1 [3]; 150 mg single oral dose cohort, 2 hours postdose) was 1.8 fold (2×) and 2.5 fold and 2.0 fold and 0.8 fold (2×) and 0.9 fold and the “Plasma CSF-1 Fold Change from Time 0” value (CSF-1 [3]; 150 mg single oral dose cohort, 4 hours postdose) was 2.2 fold and 1.8 fold and 1.9 fold (2×) and 0.8 fold (2×) and 0.9 fold. The “Plasma CSF-1 Fold Change from Time 0” value (CSF-1 [3]; 150 mg single oral dose cohort, 8 hours postdose) was 1.4 fold and 2.5 fold and 1.6 fold and 1.0 fold and 0.8 fold and 1.7 fold and 0.7 fold, the “Plasma CSF-1 Fold Change from Time 0” value (CSF-1 [3]; 150 mg single oral dose cohort, 12 hours postdose) was 1.5 fold and 1.6 fold and 2.4 fold and 0.9 fold and 0.8 fold and 1.7 fold and 0.7 fold and the “Plasma CSF-1 Fold Change from Time 0” value (CSF-1 [3]; 150 mg single oral dose cohort, 24 hours postdose) was 1.4 fold and 1.3 fold and 1.2 fold and 2.0 fold and 0.9 fold and 1.8 fold and 0.7 fold. The “Plasma CSF-1 Fold Change from Time 0” value (CSF-1 [3]; 150 mg single oral dose cohort, 48 hours postdose) was 1.2 fold and 1.1 fold and 1.0 fold and 0.8 fold and 1.8 fold and 1.4 fold and 0.6 fold, the “Plasma CSF-1 Fold Change from Time 0” value (CSF-1 [3]; 300 mg single oral dose cohort, 2 hours postdose) was 4.6 fold and 0.8 fold and 3.3 fold and 2.7 fold and 0.9 fold and 5.2 fold and 3.4 fold and 1.8 fold and the “Plasma CSF-1 Fold Change from Time 0” value (CSF-1 [3]; 300 mg single oral dose cohort, 4 hours postdose) was 4.4 fold (2×) and 1.4 fold and 3.0 fold and 0.7 fold and 6.8 fold and 4.5 fold and 2.6 fold. The “Plasma CSF-1 Fold Change from Time 0” value (CSF-1 [3]; 300 mg single oral dose cohort, 8 hours postdose) was 3.8 fold and 0.9 fold and 3.4 fold and 3.0 fold and 1.5 fold and 6.4 fold and 4.1 fold and 1.9 fold, the “Plasma CSF-1 Fold Change from Time 0” value (CSF-1 [3]; 300 mg single oral dose cohort, 12 hours postdose) was 2.6 fold and 0.8 fold and 2.2 fold and 3.8 fold and 0.9 fold and 4.5 fold and 3.0 fold and 1.4 fold and the “Plasma CSF-1 Fold Change from Time 0” value (CSF-1 [3]; 300 mg single oral dose cohort, 24 hours postdose) was 1.9 fold and 0.9 fold and 1.5 fold (3×) and 1.7 fold and 2.1 fold and 1.1 fold. The “Plasma CSF-1 Fold Change from Time 0” value (CSF-1 [3]; 300 mg single oral dose cohort, 48 hours postdose) was 2.3 fold and 1.0 fold and 1.4 fold (2×) and 0.9 fold and 2.2 fold and 1.2 fold and 0.8 fold, the “Plasma CSF-1 Fold Change from Time 0” value (CSF-1 [3]; 600 mg single oral dose cohort, 2 hours postdose) was 7.5 fold and 0.7 fold and 2.9 fold and 5.0 fold and 0.9 fold and 6.0 fold and 4.8 fold and 2.3 fold and the “Plasma CSF-1 Fold Change from Time 0” value (CSF-1 [3]; 600 mg single oral dose cohort, 4 hours postdose) was 8.7 fold and 1.2 fold. The “Plasma CSF-1 Fold Change from Baseline” value (CSF-1 [3]; 2 hours postdose) was 5.4 fold and 4.9 fold and 0.8 fold and 4.4 fold (2×) and 6.8 fold and 0.5 fold and 3.5 fold, the “Plasma CSF-1 Fold Change from Baseline” value (CSF-1 [3]; 4 hours postdose) was 8.9 fold and 8.4 fold and 1.0 fold and 7.6 fold and 9.5 fold and 5.9 fold and 0.4 fold and 5.3 fold and the “Plasma CSF-1 Fold Change from Baseline” value (CSF-1 [3]; 8 hours postdose) was 9.9 fold and 9.8 fold and 1.0 fold and 11.3 fold and 13.4 fold and 6.9 fold and 0.4 fold and 7.8 fold. The “Plasma CSF-1 Fold Change from Baseline” value (CSF-1 [3]; 12 hours postdose) was 9.2 fold and 5.2 fold and 2.1 fold and 10.5 fold and 8.8 fold and 5.8 fold and 0.4 fold and 6.0 fold, the “Plasma CSF-1 Fold Change from Baseline” value (CSF-1 [3]; 24 hours postdose) was 4.7 fold and 1.4 fold and 1.0 fold and 6.1 fold and 2.9 fold and 3.2 fold and 0.4 fold and 1.8 fold and the “Plasma CSF-1 Fold Change from Baseline” value (CSF-1 [3]; 48 hours postdose) was 2.7 fold (2×) and 1.0 fold and 0.9 fold and 3.3 fold and 2.4 fold and 0.6 fold and 1.6 fold. The IC50 (BMDM) was 2.6 nM, the “Effect on appearance, behavior, body weight or organ:body weight ratio (liver, spleen, thymus)” value [4] was “did not have an observable effect” and the “Effect on macrophage content of the uterus” value [5] was “decreased the macrophage content of the uterus”.
